Laboratory results: ChEMBL document CHEMBL1128336, “Synthetic routes to 4-amino-3-carboxy-beta-carboline derivatives: incidental formation of novel furo[3,4-c]-beta-carbolin-2-ones displaying high affinities for the benzodiazepine receptor” (J Med Chem, 1995)

molecular target: GABA-A receptor; anion channel; experiment: In vitro displacement of [3H]flunitrazepam from GABA-A central benzodiazepine receptor of rat cerebral cortex membranes; format: cell membranes, Membrane

IC50	SMILES
20 nM	CCOC1OC(=O)c2[nH]cc3nc4ccccc4c-3c21 (stereo not drawn)
70 nM	CCOC(=O)CN1C(=O)c2[nH]cc3nc4ccccc4c-3c2C1O (stereo not drawn)
150 nM	O=C1OC(=O)c2c1[nH]cc1nc3ccccc3c2-1
0.2 nM	O=C1OC(CO)c2c1[nH]cc1nc3ccccc3c2-1 (stereo not drawn)
12 nM	COC1OC(=O)c2[nH]cc3nc4ccccc4c-3c21 (stereo not drawn)
47 nM	O=C1OC(O)c2c1[nH]cc1nc3ccccc3c2-1 (stereo not drawn)
20 nM	CC1OC(=O)c2[nH]cc3nc4ccccc4c-3c21 (stereo not drawn)

SMILES	IC50
COC(=O)c1cc2c(cn1)[nH]c1ccccc12 [BETA-CCM]	2 nM
